Data on two compounds can be found in US8940777B2 (priority 2008, dated 2015).

Like-named read-outs stand apart in the source and are kept apart here.

The subject of this experiment is Rhizoctonia solani. The class given is in vivo. To be noted: cucumber (Sagami Hanjiro) seeds coated, 7 days after sowing. The protocol: Thoroughly mixed were 2.5 parts of clothianidin, 1.25 parts of tolclofos-methyl, 14 parts of polyoxyethylene styryl phenyl ether, 6 parts of calcium dodecylbenzenesulfonate and 76.25 parts of xylene to give a formulation.
The formulation was diluted with acetone, to prepare an acetone mixed solution containing clothianidin and tolclofos-methyl of given concentration.
Five (5) g of cucumber (Sagami Hanjiro) seeds were coated with 1 ml of the mixed solution using a rotation mode seed treating machine (Seed Dresser, manufactured by Hans-Ulrich Hege GmbH), to give treated seeds.
The treated seeds were allowed to stand still overnight, then, sowed on a soil stuffed in a plastic pot, and covered by a soil blended with Rhizoctonia solani cultured in a bran medium. Cultivation thereof was performed at room temperature while irrigating. Seven (7) days after sowing, the number of non-budded seeds was checked, and the damaged ratio was calculated from the formula 1. Based on the damaged ratio, the control value was calculated from the formula 2.
For comparison, an acetone solution containing clothianidin of a given concentration, and an acetone solution containing tolclofos-methyl of a given concentration were prepared, and subjected to the same test. […]

In the case of `CN/C(=N\[N+](=O)[O-])NCc1cnc(Cl)s1` [Clothianidin, clothianidin], the Control value (active ingredient amount 200 g/100 kg-seed) amounted to 4.
As for `COP(=S)(OC)Oc1c(Cl)cc(C)cc1Cl` [Tolclofos-methyl, tolclofos-methyl], the Control value (active ingredient amount 10 g/100 kg-seed) amounted to 57.
